From patent US5663196A, “Methods for treating neoplastic disorders” (Boston University, priority 1993, dated 1997)

Legend:
[1] = system: RDM-4 cells (type T lymphoma); test: Trypan Blue cell viability, RDM-4; assay type: cell-based; conditions: Mus musculus, read-out: Trypan Blue Cell Viability (%)
Excerpt: (§1) 1) The Trypan Blue Dye Exclusion Test for monitoring ceil viability as described by Phillips, H. J., in Tissue Culture Methods and Applications; Kruse, P. F., Jr., Patterson, M. K., Eds.; Academic Press, New York, 1973, 406, and by Wu, Y. W., Chik, L. L., Knazek, R. A. Cancer Research 1989, 49, 3754. The results of this assay are expressed as a percentage of viable cells:
(§2) [% viable cells]=[no. of alive cells]/[total no. of cells]×100
(§3) where the total no. cells=dead cells+alive cells. The results are compared directly with an untreated control, which typically show a three-to-four-fold increase for cancer cells, and a two-fold increase for normal cells. Treatments resulting in [% viable cells] of <30% are considered cytotoxic. Therefore, the trypan blue dye exclusion test was used to assess the number of dead and alive cells using various cell lines upon treatment with the crude and purified agent. This test provides a simple clue to the acute or late onset of a cytotoxic response. Readings for this and all other in vitro assays were taken 48 hours after treatment with the unpurified agent, and also […] after treatment for the purified agent. Thus, the trypan blue dye exclusion assay functions to confirm whether or not the cells were viable at the time readings were taken for other bioassays.
(§4) The final in vitro assays performed with the preferred purified active agent were intended to examine the scope of the activity in the trypan blue assay against a wider range of tumor cell lines (Tables 10 and 11). These cell lines included a […] lymphoma BW8767, a BW mutant which is more resistant than the BW cell lines used in other assays, as evidenced by the results in Tables 10 and 11.

[2] = system: BW8767 cells (BW resistant mutant); test: Trypan Blue cell viability, BW8767; assay type: cell-based; conditions: Mus musculus, read-out: Trypan Blue Cell Viability (%)
Excerpt: as §1, §2, §3, §4

[3] = system: EL-4 cells (type T lymphoma); test: 3H-Thymidine Incorporation, EL-4; assay type: cell-based; conditions: Mus musculus, read-out: 3H-Thymidine Incorporation (DNA Synthesis) Inhibition (%)
Excerpt: (§5) 2) The ^3 H-Thymidine Incorporation Test as described by Ju, S. T., Dorf, M. E. J. Immunol. 1985, 134, 3722. This test was used for monitoring cellular proliferation by monitoring DNA synthesis. The results are expressed as percent ^3 H-thymidine incorporation relative to an untreated control:
(§6) [% ^3 H-thymidine incorporation]=[cpm agent treated cells]/[cpm
(§7) where cpm=counts per minute. Treatments resulting in [% ^3 H-thymidine incorporation] of <50% are considered active.
(§8) The ^3 H-thymidine incorporation assay therefore measures the amount of DNA synthesis when the cells are in the "S" phase of the cell cycle, and is used to assess cell proliferation. Cancer cells, which have a very rapid cell cycle turnover, normally incorporate large amounts of tritium (^3 H) unless inhibited by an exogenous agent. […] While the trypan blue dye exclusion test is an indicator of cell death, the ^3 H-thymidine incorporation test indicates a cytostatic status (not necessarily cytotoxic) of the cell. As previously noted, this latter test was the primary screen used to guide the isolation to the active agent.

[4] = system: BW (BW5147) lymphoma cells; test: 3H-Thymidine Incorporation, BW (BW5147); assay type: cell-based, mouse
Excerpt: as §5, §6, §7
The ^3 H-thymidine incorporation assay therefore measures the amount of DNA synthesis when the cells are in the "S" phase of the cell cycle, and is used to assess cell proliferation. […]
With the preferred purified active agent in hand, ^3 H-thymidine incorporation and trypan blue assays were initially performed at different dosages using LK and BW lymphoma ceil lines in order to confirm the activity of the preferred purified active agent, and to bracket the active concentration range for the preferred purified active agent. […] In addition, the time course of cell viability in the trypan blue assay was also monitored in order to best optimize subsequent assays to ensure that the cells were still viable at the time of measurement, and to ensure a nontoxic response of the cells to the agent. […] Consequently the results of the in vitro assays employing purified agent were all recorded after 24 hours. […]

[5] = system: LK lymphoma cells; test: 3H-Thymidine Incorporation, LK; assay type: cell-based, mouse
Excerpt: as §5, §6, §7, §8
With the preferred purified active agent in hand, ^3 H-thymidine incorporation and trypan blue assays were initially performed at different dosages using LK and BW lymphoma ceil lines in order to confirm the activity of the preferred purified active agent, and to bracket the active concentration range for the preferred purified active agent. With a molecular weight of 328, a 1 μg/mL solution corresponds to 3 μM concentration. In addition, the time course of cell viability in the trypan blue assay was also monitored in order to best optimize subsequent assays to ensure that the cells were still viable at the time of measurement, and to ensure a nontoxic response of the cells to the agent. Toxicity of the agent would have been observed as cell death within 2 hours. The trypan blue assays (Table 7), run at 30 μM and 3 μM of purified agent (10 and 1 μg/mL, respectively), indicated excellent cell viability after 24 hours, though with a significant drop in viability after 48 hours at a 30 μM dose of preferred purified active agent. Consequently the results of the in vitro assays employing purified agent were all recorded after 24 hours. In the ^3 H-thymidine incorporation assay (Table 8), dosages ranging from 0.1 to 250 μg/mL were examined.

[6] = system: P815 cells (mastocytoma); test: 3H-Thymidine Incorporation, P815; assay type: cell-based; conditions: Mus musculus, read-out: 3H-Thymidine Incorporation (DNA Synthesis) Inhibition (%)
Excerpt: as §5, §6, §7, §8

[7] = system: CT26 cells (colon adenocarcinoma); test: 3H-Thymidine Incorporation, CT26; assay type: cell-based; conditions: Mus musculus, read-out: 3H-Thymidine Incorporation (DNA Synthesis) Inhibition (%)
Excerpt: as §5, §6, §7, §8

[8] = system: C7 cloned T-cells; test: 3H-Thymidine Incorporation, C7; assay type: cell-based; conditions: Mus musculus, T-cell, read-out: 3H-Thymidine Incorporation (DNA Synthesis) Inhibition (%)
Excerpt: as §5, §6, §7, §8
Each of these three fractions were then tested in the trypan blue and ^3 H-thymidine incorporation assays along with the original CsA as a control, against the LS cell line, which was the most sensitive of the cancer lines (Tables 3 and 4). […] The results of the trypan blue and ^3 H-thymidine incorporation assays against the three cell lines are compiled in Tables 5a-5f.

[9] = system: RDM-4 cells (type T lymphoma); test: 3H-Thymidine Incorporation, RDM-4; assay type: cell-based; conditions: Mus musculus, read-out: 3H-Thymidine Incorporation (DNA Synthesis) Inhibition (%)
Excerpt: as §5, §6, §7, §8, §4

[10] = system: BW8767 cells (BW resistant mutant); test: 3H-Thymidine Incorporation, BW8767; assay type: cell-based; conditions: Mus musculus, read-out: 3H-Thymidine Incorporation (DNA Synthesis) Inhibition (%)
Excerpt: as §5, §6, §7, §8, §4

[11] = system: BW lymphoma cells; test: 35S-Methionine Incorporation (protein synthesis), BW; assay type: cell-based; conditions: Mus musculus; for activity at 1 µg/mL: 1 μg/mL; for activity at 10 µg/mL: 10 μg/mL
Excerpt: (§9) 3) ^35 S-Methionine Incorporation Test as described by Sorenson, C. M., Barry, M. A., Eastman, A. J. Natl. Canc. Inst. 1990, 82, 749. The results are expressed as percent ^35 S-methionine incorporation relative to an untreated control:
(§10) [% ^35 S-methionine incorporation]=[cpm agent treated cells]/[cpm
(§11) where cpm=counts per minute. Treatments resulting in [% ^35 S-methionine incorporation] of <50% are considered active.
(§12) The ^35 S-methionine incorporation test therefore measures protein synthesis. Activity in this bioassay could arise from inhibition of transcription and/or translation.
(§13) In this test, BW and LK lymphoma cells were treated with the preferred purified active agent at 1 μg/mL and 10 μg/mL for comparison with an untreated control. The treated cells were split into two groups, one of which was thoroughly washed to remove the preferred purified active agent prior to incubation with ^35 S-methionine.

[12] = system: LK lymphoma cells; test: 35S-Methionine Incorporation (protein synthesis), LK; assay type: cell-based; conditions: Mus musculus; for activity at 1 µg/mL: 1 μg/mL; for activity at 10 µg/mL: 10 μg/mL
Excerpt: as §9, §10, §11, §12, §13

[13] = system: CT26 colon adenocarcinoma cells; test: Lung metastases of CT26 in BALB/C mice, 3rd study; assay type: in vivo; conditions: day 5; 5 μg/g mouse
Procedure: The in vivo activity of the active agent was assessed against two tumor cell types injected into mice: CT26 and Ehrlich Ascites (EAT) tumor cell lines. The protocols of the "National Cancer Institute, Drug Research and Development Division of Cancer Treatment, Instruction 14, Screening Data Summary Interpretation and Outline of Current Screen" were followed.
In a subsequent experiment, mice that had been implanted with CT26 cells as above were treated on day 5 with the solid residue from the evaporation of CsA (100 μg/g mouse), and with the preferred purified active agent 11β,13-dihydrolactucin (5 μg/g mouse).

CC1=C2C(=O)C=C(CO)[C@@H]2[C@H]2OC(=O)[C@@H](C)[C@@H]2[C@@H](O)C1 [11β,13-dihydrolactucin, 3,6-dimethyl-4-hydroxy-9-hydroxymethyl-3,3a,4,5,9a,9b-hexahydroazuleno[4,5-b]furan-2,7-dione]
viability at 1 µg/mL [1]: 100%
viability at 10 µg/mL [1]: 90%
viability at 0.1 µg/mL [2]: 100%
viability at 0.5 µg/mL [2]: 100%
viability at 1 µg/mL [2]: 100%
viability at 10 µg/mL [2]: 100%
inhibition at 0.1 µg/mL ([3]; EL4, 0.1 μg/mL): 100%
inhibition at 0.5 µg/mL ([3]; EL4, 0.5 μg/mL): 100%
inhibition at 1 µg/mL ([3]; EL4, 1.0 μg/mL): 78%
inhibition at 10 µg/mL ([3]; EL4, 10 μg/mL): 38%
ED50, 3H-thymidine incorporation [4]: micromolar range
ED50, 3H-thymidine incorporation [5]: micromolar range
inhibition at 0.1 µg/mL ([5]; Mus musculus, 3 h, 0.1 μg/mL, read-out: 3H-Thymidine Incorporation (DNA Synthesis) Inhibition (%)): 95%
inhibition at 1 µg/mL ([5]; Mus musculus, 3 h, 1 μg/mL, read-out: 3H-Thymidine Incorporation (DNA Synthesis) Inhibition (%)): 75%
inhibition at 10 µg/mL ([5]; Mus musculus, 3 h, 10 μg/mL, read-out: 3H-Thymidine Incorporation (DNA Synthesis) Inhibition (%)): 5%
inhibition at 25 µg/mL ([5]; Mus musculus, 3 h, 25 μg/mL, read-out: 3H-Thymidine Incorporation (DNA Synthesis) Inhibition (%)): 2%
inhibition at 100 µg/mL ([5]; Mus musculus, 3 h, 100 μg/mL, read-out: 3H-Thymidine Incorporation (DNA Synthesis) Inhibition (%)): 2%
inhibition at 250 µg/mL ([5]; Mus musculus, 3 h, 250 μg/mL, read-out: 3H-Thymidine Incorporation (DNA Synthesis) Inhibition (%)): 2%
inhibition at 0.1 µg/mL ([6]; 0.1 μg/mL): 100%
inhibition at 0.5 µg/mL ([6]; 0.5 μg/mL): 100%
inhibition at 1 µg/mL ([6]; 1.0 μg/mL): 50%
inhibition at 10 µg/mL ([6]; 10 μg/mL): 36%
inhibition at 0.1 µg/mL ([7]; 0.1 μg/mL): 100%
inhibition at 0.5 µg/mL ([7]; 0.5 μg/mL): 50%
inhibition at 1 µg/mL ([7]; 1.0 μg/mL): 5%
inhibition at 10 µg/mL ([7]; 10 μg/mL): 1%
inhibition at 0.1 µg/mL ([8]; 0.1 μg/mL): 100%
inhibition at 0.5 µg/mL ([8]; 0.5 μg/mL): 100%
inhibition at 1 µg/mL ([8]; 1.0 μg/mL): 100%
inhibition at 10 µg/mL ([8]; 10 μg/mL): 75%
inhibition at 0.1 µg/mL ([9]; 0.1 μg/mL): 100%
inhibition at 0.5 µg/mL ([9]; 0.5 μg/mL): 100%
inhibition at 1 µg/mL ([9]; 1.0 μg/mL): 80%
inhibition at 10 µg/mL ([9]; 10 μg/mL): 60%
inhibition at 0.1 µg/mL ([10]; 0.1 μg/mL): 100%
inhibition at 0.5 µg/mL ([10]; 0.5 μg/mL): 100%
inhibition at 1 µg/mL ([10]; 1.0 μg/mL): 80%
inhibition at 10 µg/mL ([10]; 10 μg/mL): 60%
activity at 1 µg/mL ([11]; BW (washed)): 100%
activity at 10 µg/mL ([11]; BW (washed)): 100%
activity at 1 µg/mL ([11]; BW, unwashed): 10%
activity at 10 µg/mL ([11]; BW, unwashed): 2%
activity at 1 µg/mL ([12]; LK (washed)): 100%
activity at 10 µg/mL ([12]; LK (washed)): 100%
activity at 1 µg/mL ([12]; LK, unwashed): 50%
activity at 10 µg/mL ([12]; LK, unwashed): 10%
Number of Metastases (mean ± S.D.) [13]: 0.33 ± 0.33
